The results in this text go back to PubChem BioAssay (NCI).

The structures appear in SMILES notation. Where “and” joins values, the source holds several entries; their conditions need not be identical. Identical values can stand only once.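 Interpolation was linear, between the two tested concentrations surrounding the appropriate level; five concentrations were tested over 48 hours in 96-well plates. GI50 marks 50% less growth. TGI: concentration producing complete growth inhibition.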

One test has as its system DMS 114 small cell lung. As to the kind of experiment: inhibition of tumour cell growth, NCI panel, 48 h.
For the compound `CN1NC(=Nc2ccccc2)Sc2c1cnn(-c1ccccc1)c2=O`, the TGI was above 100 µM.

`CC(=O)c1sc(-c2nc(C)c(C(=O)/C=C\c3ccc(/C=C\C(=O)c4sc(-c5nc(C)c(C(C)=O)s5)nc4C)cc3)s2)nc1C` displayed a TGI above 100 µM.

Compound `COC(=O)/C(C)=C/[N+](=O)[O-]` registered a TGI of 35.3 µM.

For the compound `Cc1ccc(C2(O)CC(c3ccc([N+](=O)[O-])o3)=NN2C(=O)COc2ccc(Cl)cc2)cc1` (stereo not drawn), the TGI amounted to 83.8 µM.

`CC1=NN(C(=O)CC(=O)N(C(=O)c2ccccc2Cl)c2ccc(C)cc2)C(=O)C1N=Nc1ccc([N+](=O)[O-])cc1` (stereo not drawn) returned a TGI above 60.5 µM.

For the compound `COC(=O)OCC1OC(N2C(=O)NC(=O)C(Br)C2N=[N+]=[N-])CC1OC(=O)OC` (stereo not drawn), the TGI is above 100 µM.

As to `COc1ccc2[nH]c3c4c(ccc3c2c1)C(=O)C=CC4=O`, the TGI is 27 µM.

Consider `C[C@@]12CCCc3coc(c31)C(=O)c1cc3c(cc12)C(=O)C=CC3=O`, for which the GI50 is above 1 µM; the TGI is > 1 µM and 39.9 µM.

Compound `C=CCNC(=O)N(CCC)CCCCC(NC(C)=O)C(=O)NCc1ccccc1` (stereo not drawn) registered a TGI above 100 µM.

Compound `Nc1ccn(C2(CO)C=C(CO)C(O)C2O)c(=O)n1` (stereo not drawn) returned a TGI above 25.8 µM.

`O=C1CC2C(=O)N(Cc3ccccc3)C1C=C2S(=O)(=O)c1ccccc1` (stereo not drawn) had a TGI above 100 µM.

With `COC(=O)CCC(=O)CC1CC(=O)C2CCCN12` (stereo not drawn), the TGI is above 100 µM.

`Cc1cc(NS(=O)(=O)c2ccc(Nc3c4ccccc4nc4c(C(=O)NCCN(C)C)cccc34)cc2)no1` gave a TGI of 14 µM.

Consider `Nc1nc(CCl)nc(Nc2ccccc2)n1`, for which the TGI is 36.5 µM.

A further test has as its system HOP-18 NSCLC. Kind of test: inhibition of tumour cell growth, NCI panel, 48 h.
For the compound `CN1NC(=Nc2ccccc2)Sc2c1cnn(-c1ccccc1)c2=O`, the TGI is above 100 µM.

`C1C[OH+]CCNCC[OH+]CC[OH+]CCN1.[Cl-].[Pt+4]`: the GI50 is above 100 µM and the TGI was above 100 µM.

In turn, `CC(=O)c1sc(-c2nc(C)c(C(=O)/C=C\c3ccc(/C=C\C(=O)c4sc(-c5nc(C)c(C(C)=O)s5)nc4C)cc3)s2)nc1C` yielded a TGI above 100 µM.

Regarding `COC(=O)/C(C)=C/[N+](=O)[O-]`, the TGI came to 31.9 µM.

In the case of `Cc1ccc(C2(O)CC(c3ccc([N+](=O)[O-])o3)=NN2C(=O)COc2ccc(Cl)cc2)cc1` (stereo not drawn), the TGI was above 100 µM.

On to `CC1=NN(C(=O)CC(=O)N(C(=O)c2ccccc2Cl)c2ccc(C)cc2)C(=O)C1N=Nc1ccc([N+](=O)[O-])cc1` (stereo not drawn), for which the TGI was above 100 µM.

Compound `COc1ccc2[nH]c3c4c(ccc3c2c1)C(=O)C=CC4=O` displayed a TGI of 22.7 µM.

For the compound `C[C@@]12CCCc3coc(c31)C(=O)c1cc3c(cc12)C(=O)C=CC3=O`, the GI50 was above 1 µM; the TGI was > 1 µM and 28.2 µM.

For `C=CCNC(=O)N(CCC)CCCCC(NC(C)=O)C(=O)NCc1ccccc1` (stereo not drawn), the TGI was above 100 µM.

Turning to `Nc1ccn(C2(CO)C=C(CO)C(O)C2O)c(=O)n1` (stereo not drawn), the TGI is above 25.8 µM.

Consider `O=C1CC2C(=O)N(Cc3ccccc3)C1C=C2S(=O)(=O)c1ccccc1` (stereo not drawn), for which the TGI is above 100 µM.

The compound `COC(=O)CCC(=O)CC1CC(=O)C2CCCN12` (stereo not drawn) came in with a TGI above 100 µM.

The test system of another test is DLD-1 colon. As to the kind of experiment: inhibition of tumour cell growth, NCI panel, 48 h.
Turning to `CN1NC(=Nc2ccccc2)Sc2c1cnn(-c1ccccc1)c2=O`, the TGI is above 100 µM.

Consider `C1C[OH+]CCNCC[OH+]CC[OH+]CCN1.[Cl-].[Pt+4]`, for which the GI50 is above 100 µM and the TGI is above 100 µM.

`CC(=O)c1sc(-c2nc(C)c(C(=O)/C=C\c3ccc(/C=C\C(=O)c4sc(-c5nc(C)c(C(C)=O)s5)nc4C)cc3)s2)nc1C` displayed a TGI above 100 µM.

With `COC(=O)/C(C)=C/[N+](=O)[O-]`, the TGI worked out at 4.16 µM.

`Cc1ccc(C2(O)CC(c3ccc([N+](=O)[O-])o3)=NN2C(=O)COc2ccc(Cl)cc2)cc1` (stereo not drawn) showed a TGI above 100 µM.

For the compound `CC1=NN(C(=O)CC(=O)N(C(=O)c2ccccc2Cl)c2ccc(C)cc2)C(=O)C1N=Nc1ccc([N+](=O)[O-])cc1` (stereo not drawn), the TGI was above 66.1 µM.

`COC(=O)OCC1OC(N2C(=O)NC(=O)C(Br)C2N=[N+]=[N-])CC1OC(=O)OC` (stereo not drawn) displayed a TGI above 100 µM.

Compound `COc1ccc2[nH]c3c4c(ccc3c2c1)C(=O)C=CC4=O` showed a TGI of 8.78 µM.

As for `C[C@@]12CCCc3coc(c31)C(=O)c1cc3c(cc12)C(=O)C=CC3=O`, the GI50 was above 1 µM; the TGI was > 1 µM and 6.07 µM.

In turn, `Nc1ccn(C2(CO)C=C(CO)C(O)C2O)c(=O)n1` (stereo not drawn) registered a TGI above 25.8 µM.

Consider `O=C1CC2C(=O)N(Cc3ccccc3)C1C=C2S(=O)(=O)c1ccccc1` (stereo not drawn), for which the TGI is above 100 µM.

In the case of `N.N.N.N.[Cl-].[Co+3].[N-]=[N+]=[N-].[N-]=[N+]=[N-]`, the GI50 is above 100 µM and the TGI was above 100 µM.

Compound `COC(=O)CCC(=O)CC1CC(=O)C2CCCN12` (stereo not drawn) came in with a TGI above 100 µM.

In the case of `Cc1cc(NS(=O)(=O)c2ccc(Nc3c4ccccc4nc4c(C(=O)NCCN(C)C)cccc34)cc2)no1`, the TGI is above 100 µM.

In turn, `Nc1nc(CCl)nc(Nc2ccccc2)n1` yielded a TGI above 100 µM.

Another test relates to MDA-N. As to the kind of experiment: inhibition of tumour cell growth, NCI panel, 48 h.
Compound `CC(C)CNC(=O)O` had a TGI above 100 µM.

`CCOC(=O)c1c[nH]c2oc(/C=N/N3CC(CN4CCOCC4)OC3=O)cc2c1=O` (stereo not drawn) gave a TGI above 100 µM.

The compound `Cc1c(C2=C(Br)C(=O)N(C)C2=O)c(=O)n(C)c(=O)n1C` returned a TGI of 77.8 µM.

On to `N#CC(=NCCO)C1=C(O)c2ccccc2C1=O`, for which the TGI is above 100 µM.

As to `CC1CCC(=O)C(C(=O)CC2CC(=O)NC(=O)C2)C1` (stereo not drawn), the TGI is above 100 µM.

For the compound `CC(C)OC(=O)NNc1cc(Cl)ccc1Cl`, the TGI was above 100 µM.

Turning to `COc1ccc2[nH]c3c4c(ccc3c2c1)C(=O)C=CC4=O`, the TGI was 29.7 µM.

Compound `COc1cc2c(cc1O)C1Cc3ccc(OC)c(O)c3C(C2)N1C` (stereo not drawn) yielded a TGI above 100 µM.

With `COc1ccc2c(c1)[C@@]13CCCC[C@H]1[C@@H](C2)N(C)CC3=O`, the TGI is 28.9 µM.

`N=C(N)SCc1cccc(-c2nc3ccccc3c(=O)o2)c1` displayed a TGI above 100 µM.

As for `C=CCSS/C=C/CS(=O)CC=C` (stereo not drawn), the TGI is 35.9 µM.

Compound `COc1ccc(OC)c2c(/C=C/c3ccc(N(C)C)cc3)ccnc12` registered a TGI above 10 µM.

In turn, `C=C1C(=O)O[C@H]2/C=C(/C)C3=CC(=O)[C@@](C)(C[C@@H](OC(=O)/C(C)=C\C)C12)O3` (stereo partly drawn) yielded a TGI of 6.24 µM.

For the next test, the system named is KM20L2 colon. As to the kind of experiment: inhibition of tumour cell growth, NCI panel, 48 h.
In turn, `CN1NC(=Nc2ccccc2)Sc2c1cnn(-c1ccccc1)c2=O` yielded a TGI above 100 µM.

Take `C1C[OH+]CCNCC[OH+]CC[OH+]CCN1.[Cl-].[Pt+4]`: the GI50 was above 100 µM and the TGI is above 100 µM.

The compound `CC(=O)c1sc(-c2nc(C)c(C(=O)/C=C\c3ccc(/C=C\C(=O)c4sc(-c5nc(C)c(C(C)=O)s5)nc4C)cc3)s2)nc1C` had a TGI above 100 µM.

Consider `COC(=O)/C(C)=C/[N+](=O)[O-]`, for which the TGI was determined as 55.5 µM.

`Cc1ccc(C2(O)CC(c3ccc([N+](=O)[O-])o3)=NN2C(=O)COc2ccc(Cl)cc2)cc1` (stereo not drawn) came in with a TGI of 44.1 µM.

Consider `CC1=NN(C(=O)CC(=O)N(C(=O)c2ccccc2Cl)c2ccc(C)cc2)C(=O)C1N=Nc1ccc([N+](=O)[O-])cc1` (stereo not drawn), for which the TGI was above 90.1 µM.

`CC(C)(C=O)CC(C#N)/C(=N\NC(N)=O)C(=O)Nc1ccccc1C(N)=O` (stereo not drawn) displayed a TGI above 100 µM.

`COC(=O)OCC1OC(N2C(=O)NC(=O)C(Br)C2N=[N+]=[N-])CC1OC(=O)OC` (stereo not drawn): the TGI was above 100 µM.

Turning to `COc1ccc2[nH]c3c4c(ccc3c2c1)C(=O)C=CC4=O`, the TGI came out at 43.1 µM.

`C[C@@]12CCCc3coc(c31)C(=O)c1cc3c(cc12)C(=O)C=CC3=O`: the GI50 was above 1 µM; the TGI is > 1 µM and 35.1 µM.

`C=CCNC(=O)N(CCC)CCCCC(NC(C)=O)C(=O)NCc1ccccc1` (stereo not drawn) showed a TGI above 100 µM.

`Nc1ccn(C2(CO)C=C(CO)C(O)C2O)c(=O)n1` (stereo not drawn) displayed a TGI above 25.8 µM.

The compound `O=C1CC2C(=O)N(Cc3ccccc3)C1C=C2S(=O)(=O)c1ccccc1` (stereo not drawn) displayed a TGI above 100 µM.

Consider `N.N.N.N.[Cl-].[Co+3].[N-]=[N+]=[N-].[N-]=[N+]=[N-]`, for which the GI50 is above 100 µM and the TGI is above 100 µM.

Compound `COC(=O)CCC(=O)CC1CC(=O)C2CCCN12` (stereo not drawn) displayed a TGI above 100 µM.

Regarding `Cc1cc(NS(=O)(=O)c2ccc(Nc3c4ccccc4nc4c(C(=O)NCCN(C)C)cccc34)cc2)no1`, the TGI is above 100 µM.

Take `Nc1nc(CCl)nc(Nc2ccccc2)n1`: the TGI was found to be 35.9 µM.

Another test has as its system MDA-MB-435. Kind of test: inhibition of tumour cell growth, NCI panel, 48 h.
In the case of `N#C/C(=C/N1CCN(C(=O)c2ccco2)C1=S)C(=O)c1ccccc1`, the GI50 was 11 µM and the TGI turned out to be 60.6 µM.

Regarding `Nc1nc(SN=Nc2ccc(S(N)(=O)=O)cc2)c2[nH]cnc2n1`, the GI50 was 0.39 µM and the TGI is above 100 µM.

Turning to `CN(CCCNC(=O)Cc1ccc2ccc3cccc4ccc1c2c34)CCCNc1cc(-c2ccc3ccccc3c2)nc2ccccc12`, the GI50 is 1.44 µM and the TGI is 3.05 µM.

With `COCCOc1cnc2ccn([C@H](C)c3nnc4c(F)cc(-c5cnn(C)c5)cn34)c(=O)c2c1`, the GI50 was above 100 µM and the TGI is above 100 µM.

With `CCc1ccccc1NC(=O)c1sc2nc3c(cc2c1N)C(=O)CCC3`, the GI50 was 0.0598 µM and the TGI amounted to 0.336 µM.

The compound `CC(C)CNC(=O)O` yielded a TGI above 100 µM.

As to `C[C@]12CC[C@@H]3c4ccc(O)cc4CC[C@H]3[C@@H]1CC[C@@H]2NS(=O)(=O)c1cccc(F)c1`, the GI50 was 2.58 µM and the TGI came to 8.77 µM.
